In the supplement of paper PMC8671470:

Key:
Settings in all cases: 72 h
HL-60 = test system: HL-60
Method in brief: (§1)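 Dose–response data were fitted with a four-parameter log-logistic model. They came from fifteen myeloid leukaemia lines treated in duplicate with five tenfold doses from 1 to 10,000 nM for 72 h at 37 °C with 5% CO2, with ATP viability normalised to vehicle and to a positive control at 10 µM. The IC50 was derived from these fits.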

NOMO-1 = test system: NOMO-1
Method in brief: as §1

SHI-1 = test system: SHI-1
Method in brief: as §1

MV4-11 = test system: MV4-11
Method in brief: as §1

LAMA-84 = test system: LAMA-84
Method in brief: as §1

THP-1 = test system: THP-1
Method in brief: as §1

HEL = test system: HEL
Method in brief: as §1

KG-1 = test system: KG-1
Method in brief: as §1

BV-173 = test system: BV-173
Method in brief: as §1

KCL-22 = test system: KCL-22
Method in brief: as §1

Mono-Mac-6 = test system: Mono-Mac-6
Method in brief: as §1

MOLM-13 [1] = test system: MOLM-13
Method in brief: as §1

K-562 = test system: K-562
Method in brief: as §1

KU-812 = test system: KU-812
Method in brief: as §1

ML-2 = test system: ML-2
Method in brief: as §1

MOLM-13 [2] = assay: cell viability (% survival relative to DMSO control, bortezomib = 0%); higher = less cytotoxic
Method in brief: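 Fifteen myeloid leukaemia cell lines were exposed to compounds at 1, 10, 100, 1000 or 10000 nM in 384-well plates for 72 h at 37 °C and 5% CO2. Viability was read by CellTiter-Glo luminescence and normalised, with vehicle as 100% and a 10 µM positive control as 0%. Values are percent survival averaged over duplicates.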

SMILES | IC50 (cell viability) (HL-60) | IC50 (cell viability) (NOMO-1) | IC50 (cell viability) (SHI-1) | IC50 (cell viability) (MV4-11) | IC50 (cell viability) (LAMA-84) | IC50 (cell viability) (THP-1) | IC50 (cell viability) (HEL) | IC50 (cell viability) (KG-1) | IC50 (cell viability) (BV-173) | IC50 (cell viability) (KCL-22) | IC50 (cell viability) (Mono-Mac-6) | IC50 (cell viability) (MOLM-13 [1]) | IC50 (cell viability) (K-562) | IC50 (cell viability) (KU-812) | IC50 (cell viability) (ML-2) | cell viability (MOLM-13 [2]; 1 nM) | cell viability (MOLM-13 [2]; 10 nM) | cell viability (MOLM-13 [2]; 100 nM) | cell viability (MOLM-13 [2]; 1000 nM) | cell viability (MOLM-13 [2]; 10000 nM)
COc1cc2c(NC3CCN(C)CC3)nc(N3CCCN(C)CC3)nc2cc1OCCCN(C)C [UNC0224] | > 10 µM | > 10 µM | > 10 µM | > 10 µM | > 10 µM | > 10 µM | > 10 µM | > 10 µM | > 10 µM | > 10 µM | > 10 µM | > 10 µM | > 10 µM | > 10 µM | > 10 µM | 104% | 111% | 92.7% | 104% | 71.1%
CN(C)c1nc(O)c2[nH]cnc2n1 [2-Dimethylamino-6-hydroxypurine] | > 10 µM | > 10 µM | > 10 µM | > 10 µM | > 10 µM | > 10 µM | > 10 µM | > 10 µM | > 10 µM | > 10 µM | > 10 µM | > 10 µM | > 10 µM | > 10 µM | > 10 µM | 96.1% | 65.7% | 104% | 91% | 66.9%
O=C(O)c1cc2sccc2[nH]1 [4H-thieno[3,2-b]pyrrole-5-carboxylic acid] | > 10 µM | > 10 µM | > 10 µM | > 10 µM | > 10 µM | > 10 µM | > 10 µM | > 10 µM | > 10 µM | > 10 µM | > 10 µM | > 10 µM | > 10 µM | > 10 µM | > 10 µM | 103% | 94.7% | 89.3% | 112% | 109%
C1CCC(C(CC2CCCCN2)C2CCCCC2)CC1.O=C(O)/C=C\C(=O)O (stereo not given) [Perhexiline] | 2.85 µM | 6.5 µM | 3.28 µM | 2.73 µM | 4.23 µM | 2.55 µM | 3.23 µM | 3.23 µM | 3.34 µM | 3.63 µM | 3.55 µM | 2.66 µM | 3.35 µM | 3.99 µM | 3.43 µM | 83.3% | 99.8% | 112% | 88.2% | 3.56%
O=C1Oc2ccccc2C(=O)C1CC1C(=O)Oc2ccccc2C1=O (stereo not given) [Dicumarol] | > 10 µM | > 10 µM | > 10 µM | > 10 µM | > 10 µM | > 10 µM | > 10 µM | > 10 µM | > 10 µM | > 10 µM | > 10 µM | > 10 µM | > 10 µM | > 10 µM | > 10 µM | 105% | 109% | 107% | 120% | 97.1%
CCOC(=O)N1c2ccc(C(F)(F)F)cc2[C@@H](N(Cc2cc(C(F)(F)F)cc(C(F)(F)F)c2)C(=O)OC)C[C@H]1CC [Torcetrapib] | > 10 µM | > 10 µM | > 10 µM | 7.03 µM | > 10 µM | > 10 µM | > 10 µM | 9.96 µM | 0.652 µM | > 10 µM | > 10 µM | > 10 µM | > 10 µM | > 10 µM | 7.83 µM | 95.9% | 112% | 141% | 98.3% | 63.7%
Nc1ccn([C@@H]2O[C@H](CO)[C@@H](O)[C@@H]2O)c(=O)n1 [Cytarabine] | 0.43 µM | 2.29 µM | 0.135 µM | 0.566 µM | 0.0585 µM | 4.77 µM | 0.0478 µM | 0.116 µM | 0.00472 µM | 0.0389 µM | 0.364 µM | 0.0806 µM | 0.092 µM | 0.034 µM | 0.0681 µM | 112% | 86.4% | 45.7% | 4.2% | 0.262%
CC(C(=O)O)C(=O)O [Methylmalonate] | > 10 µM | > 10 µM | > 10 µM | > 10 µM | > 10 µM | > 10 µM | > 10 µM | > 10 µM | > 10 µM | > 10 µM | > 10 µM | > 10 µM | > 10 µM | > 10 µM | > 10 µM | 107% | 86.8% | 124% | 78.3% | 89.2%
CC(C)C[C@H](NC(=O)[C@@H](O)[C@H](N)Cc1ccccc1)C(=O)O [Ubenimex] | > 10 µM | > 10 µM | > 10 µM | > 10 µM | > 10 µM | > 10 µM | > 10 µM | > 10 µM | > 10 µM | > 10 µM | > 10 µM | > 10 µM | > 10 µM | > 10 µM | > 10 µM | 110% | 100% | 114% | 94.8% | 94.3%
Cc1noc2c1-c1ccccc1C(c1ccc(Cl)cc1)=N[C@H]2CC(N)=O [CPI-0610] | 0.2 µM | 0.349 µM | 0.5 µM | 0.146 µM | 1.59 µM | 0.765 µM | 1.52 µM | 0.135 µM | 0.538 µM | 0.624 µM | 0.142 µM | 0.274 µM | 0.377 µM | 0.422 µM | 1.26 µM | 74.3% | 88.2% | 73.5% | 5.96% | 3.86%
O=C(c1ccc(OCCN2CCCCC2)cc1)c1c(-c2ccc(O)cc2)sc2cc(O)ccc12 [Raloxifene] | > 10 µM | > 10 µM | > 10 µM | > 10 µM | > 10 µM | > 10 µM | > 10 µM | > 10 µM | > 10 µM | > 10 µM | > 10 µM | > 10 µM | > 10 µM | > 10 µM | > 10 µM | 79.1% | 82.2% | 106% | 83.2% | 77%
C=CCc1ccc2c(c1O)C(=O)c1ccccc1C2=O [R162] | > 10 µM | > 10 µM | > 10 µM | > 10 µM | > 10 µM | > 10 µM | > 10 µM | > 10 µM | > 10 µM | > 10 µM | > 10 µM | > 10 µM | > 10 µM | > 10 µM | > 10 µM | 94% | 107% | 106% | 136% | 99.2%
NC(=O)c1ncn([C@@H]2O[C@H](CO)[C@@H](O)[C@H]2O)n1 [Ribavirin] | > 10 µM | > 10 µM | > 10 µM | > 10 µM | > 10 µM | > 10 µM | > 10 µM | > 10 µM | > 10 µM | > 10 µM | > 10 µM | > 10 µM | > 10 µM | > 10 µM | > 10 µM | 87.6% | 88% | 84.1% | 129% | 62.9%
O=C(O)CC[C@H](NC(=O)c1ccc([N+](=O)[O-])cc1)C(=O)O [(S)-2-(4-Nitrobenzamido)pentanedioic acid] | > 10 µM | > 10 µM | > 10 µM | > 10 µM | > 10 µM | > 10 µM | > 10 µM | > 10 µM | > 10 µM | > 10 µM | > 10 µM | > 10 µM | > 10 µM | > 10 µM | > 10 µM | 89% | 124% | 94.6% | 98.5% | 105%
Clc1ccc2c(c1Cl)CNCC2 | > 10 µM | > 10 µM | > 10 µM | > 10 µM | > 10 µM | > 10 µM | > 10 µM | > 10 µM | > 10 µM | > 10 µM | > 10 µM | > 10 µM | > 10 µM | > 10 µM | > 10 µM | 102% | 125% | 70.3% | 92.3% | 83.7%
O=c1c2ccccc2[se]n1-c1ccccc1 [Ebselen] | > 10 µM | > 10 µM | > 10 µM | > 10 µM | > 10 µM | > 10 µM | > 10 µM | > 10 µM | > 10 µM | > 10 µM | > 10 µM | > 10 µM | > 10 µM | > 10 µM | > 10 µM | 104% | 97.9% | 108% | 92.5% | 115%
CCOC(=O)[C@H]1O[C@@H]1C(=O)N[C@@H](CC(C)C)C(=O)NCCC(C)C [Aloxistatin] | > 10 µM | 5.52 µM | > 10 µM | > 10 µM | > 10 µM | > 10 µM | > 10 µM | > 10 µM | > 10 µM | > 10 µM | > 10 µM | > 10 µM | > 10 µM | > 10 µM | > 10 µM | 102% | 109% | 116% | 96.1% | 62.8%
Clc1ccc(COC(Cn2ccnc2)c2ccc(Cl)cc2Cl)cc1 (stereo not given) [Econazole] | 3.64 µM | > 10 µM | > 10 µM | 1.08 µM | > 10 µM | > 10 µM | > 10 µM | 6.84 µM | 2.28 µM | 6.71 µM | > 10 µM | 0.925 µM | 2.39 µM | 7.24 µM | 8.94 µM | 79.3% | 140% | 84.8% | 58.7% | 29.2%
Oc1cc(Cl)ccc1Oc1ccc(Cl)cc1Cl [Triclosan] | > 10 µM | > 10 µM | > 10 µM | > 10 µM | > 10 µM | > 10 µM | > 10 µM | > 10 µM | > 10 µM | > 10 µM | > 10 µM | > 10 µM | > 10 µM | > 10 µM | > 10 µM | 102% | 90.9% | 103% | 86.7% | 109%
CC(C)Cc1sc(N)nc1-c1ccc(P(=O)(O)O)o1 | > 10 µM | > 10 µM | > 10 µM | > 10 µM | > 10 µM | > 10 µM | > 10 µM | > 10 µM | > 10 µM | > 10 µM | > 10 µM | > 10 µM | > 10 µM | > 10 µM | > 10 µM | 134% | 97% | 102% | 113% | 104%
